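Grown in 96-well plates, cells were treated for 48 hours with each compound at five concentrations. Insufficient inhibition: endpoint recorded as highest concentration tested. At the GI50, growth is halved.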 Calls of active or inactive are those of the source. No stated cut-off is given here; in the data, active = GI50 up to about 1.1 µM and inactive = higher.
Tests used:
Experiment in all cases: inhibition of tumour cell growth, NCI panel, 48 h
[1] = tested on: 786-0
[2] = tested on: A498
[3] = tested on: A549
[4] = tested on: ACHN
[5] = tested on: CCRF-CEM
[6] = tested on: COLO 205
[7] = tested on: DLD-1
[8] = tested on: DMS-114
[9] = tested on: DMS-273
[10] = tested on: EKVX
[11] = tested on: HCC 2998
[12] = tested on: HL-60
[13] = tested on: HOP-18
[14] = tested on: HOP-62
[15] = tested on: HOP-92
[16] = tested on: HT-29
[17] = tested on: IGROV-1
[18] = tested on: K562
[19] = tested on: KM-20L2
[20] = tested on: KM12
[21] = tested on: LOX IMVI
[22] = tested on: LXFL 529
[23] = tested on: M14
[24] = tested on: M19-MEL
[25] = tested on: MOLT-4
[26] = tested on: Malme-3M
[27] = tested on: NCI-H226
[28] = tested on: NCI-H23
[29] = tested on: NCI-H460
[30] = tested on: NCI-H522
[31] = tested on: OVCAR-4
[32] = tested on: OVCAR-5
[33] = tested on: OVCAR-8
[34] = tested on: RPMI-8226
[35] = tested on: RXF 393
[36] = tested on: RXF 631
[37] = tested on: SF-268
[38] = tested on: SF-295
[39] = tested on: SK-MEL-28
[40] = tested on: SK-MEL-2
[41] = tested on: SK-OV-3
[42] = tested on: SNB-75
[43] = tested on: SW-620
[44] = tested on: TK-10
[45] = tested on: U-251
[46] = tested on: UACC-257
[47] = tested on: UACC-62
[48] = tested on: UO-31
[49] = tested on: XF498
[50] = tested on: HCT-116
[51] = tested on: HCT-15
[52] = tested on: OVCAR-3
[53] = tested on: SF-539
[54] = tested on: SK-MEL-5
[55] = tested on: SN12C
[56] = tested on: SNB-19
[57] = tested on: SNB-78
[58] = tested on: SR

Measured: GI50

O=C(c1nc2ccc(Cl)cc2nc1O)C(O)c1ccc2c(c1)OCO2 (stereo not drawn)
inactive: [1] > 100 µM | [2] > 100 µM | [3] > 100 µM | [4] 65.3 µM | [5] 4.17 µM | [6] > 100 µM | [7] > 100 µM | [8] 8.43 µM | [9] > 100 µM | [10] > 100 µM | [11] > 100 µM | [12] 19.7 µM | [13] 12.8 µM | [14] > 100 µM | [15] > 100 µM | [16] > 100 µM | [17] > 100 µM | [18] 53.8 µM | [19] 74.5 µM | [20] 63.7 µM | [21] 98.9 µM | [22] 77.6 µM | [23] > 100 µM | [24] > 100 µM | [25] 28.4 µM | [26] > 100 µM | [27] > 100 µM | [28] > 100 µM | [29] > 100 µM | [30] 13.3 µM | [31] 71.4 µM | [32] > 100 µM | [33] > 100 µM | [34] 7.4 µM | [35] > 100 µM | [36] > 100 µM | [37] 91 µM | [38] > 100 µM | [39] 78.5 µM | [40] > 100 µM | [41] > 100 µM | [42] > 100 µM | [43] > 100 µM | [44] > 100 µM | [45] > 100 µM | [46] > 100 µM | [47] 84.5 µM | [48] > 100 µM | [49] > 100 µM

C=CC(C)(C)[C@@]12CC3C(=O)N[C@@H](Cc4ccccc4)C(=O)N3[C@@H]1N(C(C)=O)c1ccccc12 (stereo partly drawn)
inactive: [1] > 100 µM | [2] > 100 µM | [3] 74.1 µM | [4] 63.5 µM | [5] 57.1 µM | [6] 36.5 µM | [7] 66.2 µM | [8] 75.3 µM | [9] 61.7 µM | [10] 96.4 µM | [50] > 100 µM | [12] 30.3 µM | [13] 64 µM | [14] > 100 µM | [15] 25.2 µM | [16] 62.2 µM | [17] > 100 µM | [18] 49.3 µM | [19] > 100 µM | [20] 77.8 µM | [21] > 100 µM | [22] 52.6 µM | [23] 57.8 µM | [24] 87.5 µM | [25] 27.4 µM | [26] > 100 µM | [27] > 100 µM | [28] > 100 µM | [29] 48.8 µM | [52] 48.6 µM | [31] 31.8 µM | [32] > 100 µM | [33] 73.5 µM | [34] 43.2 µM | [36] 58.7 µM | [38] 97.3 µM | [53] > 100 µM | [39] > 100 µM | [40] > 100 µM | [54] 37.2 µM | [41] > 100 µM | [55] 75.3 µM | [56] > 100 µM | [42] 59.8 µM | [57] > 100 µM | [58] > 100 µM | [43] 88.7 µM | [44] > 100 µM | [45] 93.3 µM | [46] 68.4 µM | [47] > 100 µM | [48] 54.8 µM | [49] > 100 µM
58.1 µM: [51]

Source: ChEMBL document CHEMBL1201862, “PubChem BioAssay data set” (2004)
